Results from patent US20040106653A1, “Aminoalcohol derivatives” (FUJISAWA PHARMACEUTICAL CO., LTD., priority 2002, published 2004).

Test system: carbachol-induced increase in intravesical pressure (IVP) in anesthetized dog
Assay: Effect on the increase in intravesical pressure induced by carbachol in anesthetized dog
Format: in vivo
Conditions: 0.032 mg/kg, intravenous; female Beagle dogs under halothane anesthesia; carbachol 1.8 μg/kg
Experimental: Effect on the increase in intravesical pressure induced by carbachol in anesthetized dog Test Method Female Beagle dogs weighing 8.0-15.0 kg were fasted for 24 hours and maintained under halothane anesthesia. A 12F Foley catheter was lubricated with water soluble jelly, inserted into the urethral orifice and advanced approximately 10 cm until the balloon tip was placed well inside the bladder. The balloon was then inflated with 5 ml of room air and catheter slowly withdrawn just part the first resistance that is felt at the bladder neck. Urine was completely drained out through the catheter, and 30 ml of biological saline was infused. The catheter was connected to pressure transducer, and intravesical pressure was continuously recorded. Intravenous administration of test compound (I) inhibited carbachol (1.8 μg/kg)-induced increase in intravesical pressure (IVP).

For `C[C@H](Cc1ccc(S(=O)(=O)c2ccc(C(=O)N(C)CC(=O)O)cc2)cc1)NC[C@H](O)c1cccc(Cl)c1.Cl` [Test Compound (1), [[4-[[4-[(2R)-2-[[(2R)-2-(3-Chlorophenyl)-2-hydroxyethyl]amino]propyl]phenyl]sulfonyl]benzoyl]-(methyl)amino]acetic acid hydrochloride], the “% inhibition of carbachol-induced increase in IVP” value was 80.8%.
